Experimental data as given in patent US9976183B2, “Biomarkers for cancers responsive to modulators of HEC1 activity” (TAIVEX THERAPEUTICS CORPORATION, priority 2011, dated 2018).

Tests used:
Format in all cases: cell-based
MDA-MB-361 = assay: Drug sensitivity, MTS cell viability assay (GI50); details: Homo sapiens, MDA-MB-361, 96 hours
In short: (§1)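 Compound added 24 h after seeding, in triplicate, in low-glucose DME with 10% FBS. After 96 h of exposure, viability was read by MTS. Growth inhibition (%) = [1 − test/control] × 100, and GI50 taken from concentration-response curves by linear regression.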

ZR-75-1 = assay: Drug sensitivity, MTS cell viability assay (GI50); details: Homo sapiens, ZR-75-1, 96 hours
In short: as §1

[1] = test system: phosphorylated p73 in HeLa and A549 cells; assay: Immunoblots for phosphorylated p73
Method: Immunoblots: Cell lysates were by incubation of cells in radioimmunoprecipitation assay (RIPA) buffer (50 mM Tris-HCl, pH7.4, 150 mM NaCl, 1% NP40, 0.25% DOC, 0.1% SDS, 1 mM NaVO4, 1 mM EDTA, 1 ug/ml leupeptin, 1 μg/ml pepstatin) or 2.5× sample buffer (50 mM Tris-HCl, pH6.8, 1% SDS, 2.5% BME, 7.5% Glycerol, Bromophenol blue). Tissue samples were immersed in RIPA buffer, disrupted with a homogenizer, and centrifuged to clarify. Samples were then subjected to SDS-PAGE, blotted onto immunoblotting membranes, and incubated with primary antibodies in 3% BSA-TBST. Horseradish peroxidase—conjugated secondary antibodies were used for protein detection by enhanced chemiluminescence (Millipore, Billerica, Mass. 01821 USA). The following antibodies were used for Western blotting: anti-Rb monoclonal antibody 1F8 (Abcam, Cambridge, Mass. 02139-1517 USA); anti-p53 monoclonal antibody (Santa Cruz Biotechnology, Santa Cruz, Calif. 95060 USA); anti-β-actin monoclonal antibody AC-15 (Sigma Aldrich, St. Louis, Mo., USA).
P73 is a member of the p53-family that mediates apoptosis and replaces p53 function in p53-deficient cells. […] To investigate this, drug-responsive (HeLa) and drug-resistant cells (A549) carrying mutant p53 proteins were treated with Hec1 inhibitor 110095 for varying lengths of time.

MEX-SA/Dx5 = assay: Synergy of Hec1 inhibitor with cytotoxic drug (combination index, MTS); details: in combination with paclitaxel
Method: (§2) Synergy: GI50s for selected drugs were determined and used to calculate a concentration ratio for use synergy assays with Hec1 inhibitors. Cells were treated with drugs 24 hours after being seeded in appropriate seeding numbers into 96 well plates containing low glucose DME with 10% FBS. […] Cell viability was determined by MTS assay using a CellTiter 96® Aqueous non-radioactive cell proliferation assay system (Promega, Madison, Wis. 53711 USA) according to the manufacturer's instructions. Optical density was determined using a Bio-Tek 340 spectrophotometer (Bio-Tek, Winooski, Vt. 05404) and were then processed using Excel (Microsoft, Redmond, Wash. 98052-7329) and GraphPad Prism 5 linear regression software (GraphPad Software, La Jolla, Calif. 92037 USA) to determine concentration-response curves for calculating relative GI50s. Synergy was determined by calculating a combination index value using the formula CI (combination index)=(CA,X/ICx,A)+(CB,X/ICx,B), where CA,X and CB,X are the concentrations of drug A and drug B used in combination to achieve x % drug effect. ICx,A and ICx,B are the concentrations for single agents to achieve the same effect.
(§3) Drugs that can target pathways unreached by other current anti-cancer drugs have even better clinical potential to be incorporated into current therapeutic regimens. […] Hec1 inhibitor-responsive cancer cells used for screening were treated with a mixture of Hec1 inhibitor and select anti-cancer drug at appropriate concentration ratios and evaluated for cell viability. […] Table 9 summarizes the results of synergism studies on a number of cancer derived cell lines treated with Hec1 inhibitor 110001 in combination cytotoxic drugs.

NCI/ADR-RES = assay: as above; details: in combination with paclitaxel
Method: as §2, §3

K562R = assay: as above; details: in combination with paclitaxel
Method: as §2, §3

GI50 (MDA-MB-361) | SMILES | GI50 (ZR-75-1) | time of peak p73 phosphorylation after drug treatment ([1]; immunoblot (FIG. 5A)) | phosphorylation of p73 ([1]; immunoblot, treated for varying lengths of time, 200 nM (FIG. 5A)) | Combination Index (MEX-SA/Dx5) | Synergy (MEX-SA/Dx5) | Combination Index (NCI/ADR-RES) | Synergy (NCI/ADR-RES) | Combination Index (K562R) | Synergy (K562R)
> 10000 nM | COc1ccc(Oc2cc(C)c(-c3csc(NC(=O)c4ccncc4)n3)c(C)c2)cc1 [compound 101001, N-(4-(4-(4-methoxyphenoxy)-2,6-dimethylphenyl)thiazol-2-yl)isonicotinamide] | 79.6 nM | – | – | – | – | – | – | – | –
– | COCCOc1cnc(Sc2cc(C)c(-c3csc(NC(=O)c4ccncc4)n3)c(C)c2)cn1 [compound 110095, N-(4-(4-(5-(2-methoxyethoxy)pyrazin-2-ylthio)-2,6-dimethylphenyl)thiazol-2-yl)isonicotinamide] | – | 48 h | induced time-dependent phosphorylation of p73 | 1.41 | No | 0.82 | Yes | 0.65 | Yes
